Results reported in patent publication US10369123B2, “Perk activator for the treatment of neurodegenerative diseases” (DEUTSCHES ZENTRUM FÜR NEURODEGENERATIVE ERKRANKUNGEN E.V. …, priority 2014, dated 2019).
“Also recorded” adds a separate entry of the source.

Experiments:
[1] = system: tau; assay: Western blot of tau conformation and phosphorylation, annonacin model; assay type: cell-based, human; settings: annonacin 25 nM + PERK activator, 48 h
Description: (§1) Nunc™ Nunclon™ Delta 6-well (for protein and mRNA) or 48-well (for cell assays) plates (Thermo Fisher Scientific, Waltham, Mass., USA) were coated with 100 μg/ml poly-L-lysine (Sigma-Aldrich, St. Louis, Mo., USA) and 5 μg/ml fibronectin (Sigma-Aldrich). LUHMES (Lund Human Mesencephalic) cells, derived from human embryonic ventral mesencephalic cells by conditional immortalization (Tet-off v-myc over-expression) were seeded out in a concentration of 130,000 cells/cm^2 to achieve a confluence of 50%. They were then differentiated for 8 days in a medium of DMEM/F12 (Sigma-Aldrich), 1 μg/ml tetracycline, […] and 490 μg/ml dbcAMP into post-mitotic neurons with a dopaminergic phenotype (Lotharius et al. 2005).
(§2) For all experiments with annonacin, the medium was replaced during the intoxication period with new medium containing glucose levels reduced to 250 μM, i.e. the physiological concentration in the human brain.
Protein was extracted by scraping the cells from the culture plate with Mammalian Protein Extraction Reagent (M-PER, Thermo Fisher Scientific) and 1× cOmplete Protease Inhibitor Cocktail Tablets (Hoffmann-La Roche, Basel, Switzerland) and 1× PhosSTOP Phosphatase Inhibitor Cocktail Tablets (Hoffmann-La Roche). For pNRF2 blots, cells were extracted with 2% SDS tris-buffer instead of M-PER in order to obtain whole cell extracts and not to lose the nuclear fraction. The protein solution was frozen at −80° C., immediately after retrieval, for a minimum of two hours. The solution was then thawed on ice, vortexed, centrifuged at 5000 g for 15 min at 4° C. and the supernatant retrieved. Protein concentrations were determined using the BCA kit (Thermo Fisher Scientific) by heating the samples at 60° C. for 30 min and measuring the absorption on the NanoDrop 2000c Spectrophotometer (Thermo Fisher Scientific).
20 μg of protein (unless indicated otherwise) were adjusted to equal concentrations between samples by dilution with M-PER and subsequently heated at 95° C. for 5 minutes with Roti®-Load 1 (Carl Roth). SDS-PAGE was performed using Any kD™ Mini-PROTEAN® TGX™ Gels (BioRad, Berkeley, Calif., USA) in a tris-glycine running buffer. The protein was blotted onto PVDF membrane (BioRad) at 70 V for 65 minutes on ice. The membrane was blocked with 1× Roti®-Block solution (Carl Roth) for 1 h and then incubated at 4° C. overnight under gentle shaking with the primary antibody (see Table 5) in TBS with 5% BSA (Cell Signaling Technology) and 0.05% TWEEN (Sigma-Aldrich).
The membranes were then washed and incubated with the species specific HRP-bound secondary antibody (Vector Laboratories, Burlingame, Calif., USA) at 1:2500 in 1× Roti®-Block solution for 2 h, followed by further washing and exposure to Clarity Western ECL Substrate (BioRad) or, in the case of MC1 and 4R-tau, to Amersham™ ECL™ Prime (GE Healthcare). Chemiluminescence was detected with the Gel Doc™ XR System (BioRad) and analyzed with Image Lab™ software (BioRad), followed by graphical and statistical analysis with Prism 6 (GraphPad Software).

[2] = system: paired helical filament tau (AT180); assay: Immunohistochemistry of P301S mouse hippocampus; assay type: in vivo; settings: P301S mice, 2 mg/kg i.p. once daily for 6 weeks from 17 weeks of age, vs saline
Description: For the efficacy trial in the late disease stage (Xu et al. 2014), P301S mice and wild type littermates received once daily i.p. injections of 2 mg/kg CCT020312 or saline from 17 to 22 weeks of age (n=12 for CCT020312 treated P301S mice, n=9 for other groups); they were analyzed with the Rotarod test in the 23rd week of age.
Twelve hours after the last injection, animals were anesthetized by i.p. injections of pentobarbital at (100 mg/kg) and transcardially perfused with 0.1 M phosphate buffer for 2 min, then fixed for 10 min with 4% paraformaldehyde. Post-fixation of the brain was done in 4% paraformaldehyde at 4° C. for 48 h. Their brains were prepared for histological analysis, as described (Xu et al. 2014). For the immunoblot analysis in P301S mice and wild type mice were sacrificed by cervical dislocation, their brains were frozen on dry ice and stored at −80° C. for Western blot analysis.
Fixed brains (n=6 per group) were cut into 30 μm-thickness of coronal sections with a cryomicrotome (CM3050 S, Leica). […]

[3] = system: 3R/4R MAPT mRNA, splicing factor SRSF2; assay: Quantitative PCR of MAPT isoforms and splicing factors, annonacin model; assay type: cell-based, human; settings: annonacin + PERK activator
Description: as §1, §2
RNA from human tissue samples was extracted by grinding the tissue in liquid nitrogen to a powder and then dissolving it in the RA1 buffer supplied as part of the NucleoSpin® RNA (Macherey Nagel) RNA extraction kit+1% (v/v) 2-mercaptoethanol (Sigma-Aldrich). RNA from cells was extracted by scraping the cells from the culture plate with RA1 buffer+1% (v/v) 2-mercaptoethanol. The remaining extraction procedure was according to the manufacturer's instructions for the NucleoSpin® RNA kit. RNA concentrations were determined using the NanoDrop 2000c Spectrophotometer. The RNA was then transcribed into cDNA with the iScript™ cDNA Synthesis Kit (BioRad) using the manufacturer's instructions. Real-Time PCR was performed on the Applied Biosystems® StepOnePlus™ (Life Technologies) system using TagMan® Universal Master Mix II and TaqMan® primers against total MAPT, MAPT 3R, MAPT 4R, EIF2A, EI2AK3 and ATF4. POL2A and PSCM1 served as reference targets as they were determined to be the most stably expressed across experimental conditions. The results were analyzed using the StepOne Plus software (Life Technologies) and Qbase software (Biogazelle) and were then graphically and statistically analyzed with Prism 6 (GraphPad Software). Absolute quantification was performed by creating a standard curve with plasmids containing either the 2N3R or the 2N4R spliced variant of MAPT (see Table 2). The absolute quantity was computed by deriving the relationship between CT values and absolute quantity with the StepOne Plus software.

CCN(CC)CCC(=O)N1N=C(c2c(-c3ccccc3)c3cc(Br)ccc3[nH]c2=O)CC1c1ccc(Br)cc1 (stereo not shown) [CCT020312, 6-bromo-3-[5-(4-bromo-phenyl)-1-(3-diethylamino-propionyl)-4,5-dihydro-1H-pyrazol-3-yl]-4-phenyl-1H-quinolin-2-one]
total tau protein (HT7) [1]: not altered
AD2 (p-Ser-396 and 404) tau phosphorylation ([1]; vs annonacin alone): significantly reduced
CP13 (p-Ser-202) tau phosphorylation ([1]; vs annonacin alone): significantly reduced
MC1 pathological tau conformation ([1]; vs annonacin alone): reversed; also recorded: averted
AT180-immunoreactivity in the hippocampal region, histology [2]: decreased
annonacin-induced increase of splicing factor SRSF2 [3]: significantly reduced
4R-tau mRNA amount ([3]; 48 h): reduced
